Converted amounts (≈) assume the structure as drawn. Like-named read-outs stand apart in the source and are kept apart here.
What was measured:
M. abscessus = assay: MIC by broth dilution method (Middlebrook 7H9); format: cell-based, Mycobacteroides abscessus
M. abscessus ATCC 19977 = format: cell-based, Mycobacteroides abscessus

C[C@@H](O)C1C(=O)N2C(C(=O)O)=C(SC3CN(C4=NCCS4)C3)SC12 (stereo in doubt) [T405]
strains exhibiting MICs of ≤4 µg/mL (M. abscessus; 20 clinical M. abscessus strains): 17/20 | MIC of T405 with avibactam (M. abscessus; ATCC 19977, avibactam 4 µg/mL): 0.5 µg/mL | MIC50 (M. abscessus; Mycobacteroides abscessus): 2 µg/mL (≈ 5.16 µM) | MIC90 (M. abscessus; Mycobacteroides abscessus): 8 µg/mL (≈ 20.6 µM) | MIC (M. abscessus; Mycobacteroides abscessus, ATCC19977, reference strain ATCC 19977): 2 µg/mL (≈ 5.16 µM) | MIC (M. abscessus; Mycobacteroides abscessus, clinical isolate 1N): 2 µg/mL (≈ 5.16 µM) | MIC (M. abscessus; Mycobacteroides abscessus, clinical isolate 2N): 2 µg/mL (≈ 5.16 µM) | MIC (M. abscessus; Mycobacteroides abscessus, clinical isolate 3N): 2 µg/mL (≈ 5.16 µM) | MIC (M. abscessus; Mycobacteroides abscessus, clinical isolate 4N): 1 µg/mL (≈ 2.58 µM) | MIC (M. abscessus; Mycobacteroides abscessus, clinical isolate 5N): 1 µg/mL (≈ 2.58 µM) | MIC (M. abscessus; Mycobacteroides abscessus, clinical isolate 8N): 4 µg/mL (≈ 10.3 µM) | MIC (M. abscessus; Mycobacteroides abscessus, clinical isolate 11N): 8 µg/mL (≈ 20.6 µM) | MIC (M. abscessus; Mycobacteroides abscessus, clinical isolate 13N): 1 µg/mL (≈ 2.58 µM) | MIC (M. abscessus; Mycobacteroides abscessus, clinical isolate 14N): 8 µg/mL (≈ 20.6 µM) | MIC (M. abscessus; Mycobacteroides abscessus, clinical isolate 202): 2 µg/mL (≈ 5.16 µM) | MIC (M. abscessus; Mycobacteroides abscessus, clinical isolate 203): 2 µg/mL (≈ 5.16 µM) | MIC (M. abscessus; Mycobacteroides abscessus, clinical isolate 204): 8 µg/mL (≈ 20.6 µM) | MIC (M. abscessus; Mycobacteroides abscessus, clinical isolate 214): 1 µg/mL (≈ 2.58 µM) | MIC (M. abscessus; Mycobacteroides abscessus, clinical isolate 215): 2 µg/mL (≈ 5.16 µM) | MIC (M. abscessus; Mycobacteroides abscessus, clinical isolate JH1801): 1 µg/mL (≈ 2.58 µM) | MIC (M. abscessus; Mycobacteroides abscessus, clinical isolate JH1802): 4 µg/mL (≈ 10.3 µM) | MIC (M. abscessus; Mycobacteroides abscessus, clinical isolate JHH2): 4 µg/mL (≈ 10.3 µM) | MIC (M. abscessus; Mycobacteroides abscessus, clinical isolate JHH4): 2 µg/mL (≈ 5.16 µM) | MIC (M. abscessus; Mycobacteroides abscessus, clinical isolate JHH9): 4 µg/mL (≈ 10.3 µM) | MIC (M. abscessus; Mycobacteroides abscessus, clinical isolate JHHKB): 2 µg/mL (≈ 5.16 µM) | Reduction of T405 MIC by addition of avibactam (M. abscessus; avibactam 4 µg/mL, ATCC 19977 and 10 clinical isolates): two-fold (7 strains) or fourfold (2 strains) | Reduction in the frequency of resistance on addition of avibactam (M. abscessus ATCC 19977; T405 2 µg/mL with vs without avibactam 256 µg/mL): ~3 log | Resistance frequency (M. abscessus ATCC 19977; T405 at MIC (2 µg/mL) combined with avibactam at its MIC of 256 µg/mL): 5.8 × 10^−9 | Resistance frequency (M. abscessus ATCC 19977; drug alone at its individual MIC (T405 2 µg/mL, imipenem 8 µg/mL)): 2.0 × 10^−6 | Frequency of resistance higher than that for imipenem (M. abscessus ATCC 19977; each at its MIC): approximately 1 log

— paper PMC7721803, “Development of a penem antibiotic against Mycobacteroides abscessus” (Communications Biology, 2020)
